Experimental data: publication PMC3906007, “Discovery of a Small Molecule Agonist of Phosphatidylinositol 3-Kinase p110α That Reactivates Latent HIV-1” (PLoS ONE, 2014)
Read-outs that look alike come from different tables or passages of the source.

Columns and labels:
[1] = target: T1, HDAC2 (Homo sapiens, UniProt Q92769); assay: biochemical; conditions: recombinant purified enzyme; read-out: 57704 IC50, HDAC2
T1 construct: purchased BPS Bioscience (San Diego, CA)
Description: (§1) The lysine deacetylase activity of HDACs 1, 2, 3, and 8 was assessed using the Fluorogenic HDAC Assay (BPS Bioscience, San Diego, CA) according to the manufacturer's instructions. […] All assays were carried out under steady-state conditions and the assay read-out was optimized for linearity both as a function of time and enzyme concentration. The formation of the fluorescent product was measured using a SpectraMax M2 Plate Reader (Molecular Devices, CA). The excitation and emission wavelengths were 360 nm and 450 nm, respectively.

[2] = target: T2, HDAC3 (Homo sapiens, UniProt O15379); assay: Fluorogenic HDAC activity assay, HDAC3 complexed with NCOR2; format: biochemical
T2 construct: purchased BPS Bioscience (San Diego, CA)
T2 sequence (O15379 whole entry): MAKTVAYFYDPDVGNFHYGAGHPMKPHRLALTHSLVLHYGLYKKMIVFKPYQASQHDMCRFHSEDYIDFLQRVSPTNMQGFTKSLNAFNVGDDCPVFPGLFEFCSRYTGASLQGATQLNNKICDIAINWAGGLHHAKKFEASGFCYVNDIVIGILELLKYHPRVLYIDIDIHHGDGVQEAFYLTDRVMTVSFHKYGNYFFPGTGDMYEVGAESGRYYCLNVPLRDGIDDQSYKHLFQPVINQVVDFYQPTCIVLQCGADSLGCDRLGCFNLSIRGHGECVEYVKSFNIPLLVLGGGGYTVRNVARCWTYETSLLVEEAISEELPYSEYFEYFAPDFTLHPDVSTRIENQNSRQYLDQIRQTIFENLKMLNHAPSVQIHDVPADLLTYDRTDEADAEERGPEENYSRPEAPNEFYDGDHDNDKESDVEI
T2 sequence (Q9Y618 395-489 partner limits assumed): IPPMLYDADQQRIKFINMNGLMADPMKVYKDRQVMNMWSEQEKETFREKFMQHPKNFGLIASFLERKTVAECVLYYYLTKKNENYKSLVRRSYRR
Description: as §1

[3] = test system: latent HIV-1 in ACH2 cell line; assay: Latent HIV-1 reactivation in ACH2 cells (quantitative PCR of early and late viral RNA transcripts); format: cell-based
Description: (§2) Three different cell lines of HIV-1 latency were used in this study. These included J89GFP, U1 and ACH-2 cells. The J89GFP cells were a kind gift from Dr. David Levy. The ACH-2 and U1 cells were obtained through the AIDS Research and Reference Reagent Program, Division of AIDS, NIAID, NIH: Dr. Thomas Folks contributor [19]–[21]. Reactivation of latent HIV-1 in the J89GFP cells was measured by quantifying the percentage of EGFP positive cells using a BD FACScan flow cytometer with BD FACSDiva software (BD Biosciences, CA), as described previously. Reactivation of latent HIV-1 in the ACH-2 and U 1 cells was assessed by quantitative analysis of initiated and elongated HIV-1 transcripts, as described previously. All 3 cell lines were maintained in RMPI 1640 medium supplemented with 10% FBS, 0.3 mg/mL L-glutamine, 100 U/mL penicillin, and 100 µg/mL streptomycin at 37°C in humidified air with 5% CO2.
Figure 2 Latent HIV-1 reactivation activity of 57704, alone and in combination with other inducing agents, in the U1 and ACH2 cell line models of virus latency. HIV-1 expression was assessed by quantitative PCR analysis of early and late viral RNA transcripts. Where appropriate, TNFα was used as an activation control. (A) Latent HIV-1 reactivation of activity 57704 in the J89GFP cell line. […] EC50 values were determined in Sigma Plot by nonlinear regression, as described previously. […]

[4] = Cytotoxicity (MTT or CellTiter 96), CD8+-depleted MNC; format: cell-based; conditions: human, CD8+-depleted mononuclear cells (MNC) from whole blood; 24 hour incubation; mean of 2 replicates
Description: (§3) Following a 24 hour incubation period, cell viability was measured using either the MTT (Roche Applied Science, Indianapolis, IN) or CellTiter 96 proliferation (Promega, WI) assay.
CD8+T-cells were depleted from whole blood using RosetteSep Human CD8 Depletion Cocktail (StemCell Technologies, Vancouver, BC) according to manufacturer's instructions. 2×10^6 CD4^+ MNC cells were seeded in triplicate per treatment in 48-well plates and allowed to rest overnight. All wells were maintained in 81 nM efavirenz. […] Activation controls were treated with CD3/CD28 Dynabeads (Life Technologies, Grand Island, NY). After 7 days of incubation, supernatants from triplicate wells were pooled, centrifuged (500 g×5 min), and stored at −80°C. HIV-1 RNA levels in supernatants were determined using the COBAS® AmpliPrep/COBAS® TaqMan® HIV-1 Test, v2.0 (Roche, Indianapolis, IN).

[5] = test system: PI3K p110δ RNA; assay: PI3K isoform RNA transcript levels in J89GFP cells, p110δ; format: cell-based; conditions: 5 µM
[6] = test system: purified T cells; assay: Global T cell activation (surface expression of CD69, CD38 and HLA-DR); format: cell-based; conditions: different concentrations, up to 5 days
Description: Peripheral blood MNC were obtained from the blood of healthy donors by Ficoll-Paque PLUS (GE Healthcare, Piscataway, NJ) density gradient centrifugation. T cells were isolated using the Pan T Cell Isolation kit (Miltenyi Biotec, Auburn, CA) according to manufacturer's instruction. Briefly, non-T cells were depleted from the MNC using biotin-conjugated antibodies to CD14, CD15, CD16, CD19, CD34, CD36, CD56, CD123, and CD235a and anti-biotin-labeled magnetic beads. […] Cells were then washed twice with PBS, resuspended in PBS with 4% PFA and stored in the refrigerator until analysis. Samples were analyzed on a BD LSRII flow cytometer and analyzed using FACsDiva software (BD Biosciences, Mountain View, CA). Forward versus side scatter plot was used to define the live cell population and fluorescence gates were set based on isotype control fluorescence.

[7] = test system: PI3K p110β RNA; format: cell-based; conditions: J89GFP cells; 5 µM
[8] = target: T3, HDAC1 (Homo sapiens, UniProt Q13547); assay: Fluorogenic HDAC activity assay, HDAC1; format: biochemical
T3 construct: purchased BPS Bioscience (San Diego, CA)
T3 sequence (Q13547 whole entry): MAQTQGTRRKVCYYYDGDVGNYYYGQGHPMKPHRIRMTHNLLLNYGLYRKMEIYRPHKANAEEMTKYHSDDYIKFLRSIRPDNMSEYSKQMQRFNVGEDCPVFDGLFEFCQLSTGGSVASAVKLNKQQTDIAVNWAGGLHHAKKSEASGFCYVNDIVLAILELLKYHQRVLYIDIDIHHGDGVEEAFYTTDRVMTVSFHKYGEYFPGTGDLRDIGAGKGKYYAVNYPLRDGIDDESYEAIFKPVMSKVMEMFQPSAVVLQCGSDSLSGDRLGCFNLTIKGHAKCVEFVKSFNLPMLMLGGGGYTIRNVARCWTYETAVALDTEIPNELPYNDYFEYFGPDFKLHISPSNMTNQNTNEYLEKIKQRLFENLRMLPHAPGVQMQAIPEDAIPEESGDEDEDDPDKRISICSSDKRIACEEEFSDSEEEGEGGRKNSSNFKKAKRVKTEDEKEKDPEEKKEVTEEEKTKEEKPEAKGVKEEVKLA
Description: The lysine deacetylase activity of HDACs 1, 2, 3, and 8 was assessed using the Fluorogenic HDAC Assay (BPS Bioscience, San Diego, CA) according to the manufacturer's instructions. The HDAC3 used in this assay was complexed with human nuclear receptor co-repressor 2 (NCOR2; amino acids 395–489), which is an activating co-factor of this HDAC isoform. All assays were carried out under steady-state conditions and the assay read-out was optimized for linearity both as a function of time and enzyme concentration. The formation of the fluorescent product was measured using a SpectraMax M2 Plate Reader (Molecular Devices, CA). The excitation and emission wavelengths were 360 nm and 450 nm, respectively. […]

[9] = test system: latent HIV-1 in U1 cell line; assay: Latent HIV-1 reactivation in U1 cells (quantitative PCR of early and late viral RNA transcripts); format: cell-based
Description: as §2
Figure 2 Latent HIV-1 reactivation activity of 57704, alone and in combination with other inducing agents, in the U1 and ACH2 cell line models of virus latency. HIV-1 expression was assessed by quantitative PCR analysis of early and late viral RNA transcripts. Where appropriate, TNFα was used as an activation control. (A) Latent HIV-1 reactivation of activity 57704 in the J89GFP cell line. […] (B) Latent HIV-1 reactivation activity of 57704 in the ACH2 cell line. (C) Latent HIV-1 reactivation of activity 57704 in the U1 cell line. (D) Graph of activation of latent HIV-1 early and late gene transcript expression in the ACH2 and U1 cell lines. EC50 values were determined in Sigma Plot by nonlinear regression, as described previously. (E) Latent HIV-1 reactivation of 5 µM 57704 in combination with 1 µM prostratin in the U1 cell line. […]. (G) Latent HIV-1 reactivation of 5 µM 57704 in combination with 2.5 µM DSF in the U1 cell line. (H) Latent HIV-1 reactivation of 5 µM 57704 in combination with 20 µM BIX-01294 in the U1 cell line. Data represent the mean ± standard deviation from 3 replicate experiments.

[10] = test system: latent HIV-1 in ACH2 and U1 cell lines; assay: Latent HIV-1 reactivation, range across cell lines of virus latency; format: cell-based; conditions: Human immunodeficiency virus 1, ACH-2, read-out: EC50, reactivation of latent HIV-1 gene expression
[11] = test system: PI3K p110α RNA; assay: PI3K isoform RNA transcript levels in J89GFP cells, p110α; format: cell-based; conditions: 5 µM
[12] = Cytotoxicity (MTT or CellTiter 96), 293T; format: cell-based; conditions: human, 293T cells; 24 hour incubation; mean ± SD, 3 replicates
Description: as §3

[13] = Cytotoxicity (MTT or CellTiter 96), Jurkat; format: cell-based; conditions: human, Jurkat cells; 24 hour incubation; mean ± SD, 3 replicates
Description: as §3

T1 sequence (Q92769 whole entry): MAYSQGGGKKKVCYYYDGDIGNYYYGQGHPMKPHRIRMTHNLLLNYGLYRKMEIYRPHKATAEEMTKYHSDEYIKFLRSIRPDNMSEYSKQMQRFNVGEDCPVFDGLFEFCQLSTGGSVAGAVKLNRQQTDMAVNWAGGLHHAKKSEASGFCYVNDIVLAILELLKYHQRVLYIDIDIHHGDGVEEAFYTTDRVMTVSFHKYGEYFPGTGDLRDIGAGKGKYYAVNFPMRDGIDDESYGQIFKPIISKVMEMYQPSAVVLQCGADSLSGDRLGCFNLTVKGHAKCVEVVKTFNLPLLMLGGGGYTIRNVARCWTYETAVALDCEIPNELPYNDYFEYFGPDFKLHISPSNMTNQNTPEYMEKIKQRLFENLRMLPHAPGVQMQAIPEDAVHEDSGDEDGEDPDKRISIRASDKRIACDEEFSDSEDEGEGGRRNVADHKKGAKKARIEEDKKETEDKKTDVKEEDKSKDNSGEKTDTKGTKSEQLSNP

Compound: COc1cc2c(cc1OC)-c1c(OC)c(OC)cc3ccnc(c13)C2=O [Compound 57704, 1,2,9,10-tetramethoxy-7H-dibenzo[de,g]quinolin-7-one]
- IC50 [1]: > 50 µM
- IC50 [2]: > 50 µM
- EC50 ([3]; Human immunodeficiency virus 1, ACH-2, read-out: EC50, activation of early HIV-1 gene transcript expression): 9 µM
- EC50 ([3]; Human immunodeficiency virus 1, ACH-2, read-out: EC50, activation of late HIV-1 gene transcript expression): 6.2 µM
- CC50 at 24 h [4]: 80 µM
- Effect on PI3K p110δ RNA transcript levels / gene expression [5]: no effect
- Surface expression of CD69, CD38 and HLA-DR [6]: did not up-regulate
- Decrease of PI3K p110β RNA levels [7]: ~2 fold
- IC50 [8]: > 50 µM
- EC50 ([9]; Human immunodeficiency virus 1, read-out: EC50, activation of early HIV-1 gene transcript expression): 8.2 µM
- EC50 ([9]; Human immunodeficiency virus 1, read-out: EC50, activation of late HIV-1 gene transcript expression): 4.9 µM
- Latent HIV-1 reactivation activity in combination with prostratin ([9]; U1, 5 µM 57704 + 1 µM prostratin): increased in an additive manner
- Latent HIV-1 reactivation activity in combination with DSF ([9]; U1, 5 µM 57704 + 2.5 µM DSF): increased in an additive manner
- Latent HIV-1 reactivation activity in combination with SAHA ([9]; U1, 5 µM 57704 + 5 µM SAHA): increased in an additive manner
- Latent HIV-1 reactivation activity in combination with BIX-01294 ([9]; U1, 5 µM 57704 + 20 µM BIX-01294): increased in an additive manner
- EC50 [10]: 5 to 9 µM
- Effect on PI3K p110α RNA transcript levels [11]: no effect
- CC50 at 24 h [12]: 106 ± 31.4 µM
- CC50 at 24 h [13]: 92.9 ± 7.5 µM
